Data on 33 compounds can be found in US3984432A, “Color photographic recording material” (priority 1973, dated 1976).

Structures are written as SMILES.

The data set can be described thus: Absorption maximum after colour development in a photographic silver halide layer according to Use Example I. The format is physicochemical. The note with it: pyrazolone coupling agents. On the procedure:
The compounds of the formulae which follow are prepared according to methods which are in themselves known, from the corresponding 4-equivalentcoupling agents (the corresponding compounds with hydrogen in the position marked with *, in place of the substituents drawn). With regard to methods of manufacture, compare DT-OS or DT-AS 1,236,332, 2,043,271, 1,547,672 or 1,187,477. Next to the formula, the absorption maximum in nm is specified in each case (see footnote to Table I). ##SPC8##
*)After colour development of the coupling agents in a photographic silve
halide layer according to Use Example I
0.3 mmol of coupling agent of the formula (215) is dissolved in 2.0 ml of tricresyl phosphate/methylene chloride (3:7). The methylene chloride is evaporated off, 6.0 ml of an 8% strength aqueous solution of sodium isopropylnaphthalene-sulphonate, 20.0 ml of 6% strength gelatine solution and 3.4 ml of water are added and the mixture is adjusted to pH 6.5 and emulsified for 5 minutes by means of an ultrasonic apparatus with an output of 100 watt.
5.0 of coupling agent emulsion freshly treated with ultrasonics, 3.3 ml of silver bromide emulsion of pH 6.5, containing 1.4% of silver and 6.0% of gelatine, 2.0 ml of 1% strength aqueous solution of the hardener of the formula [formula] and 1.7 ml of water are mixed with one another and cast at 40°C on a substrated glass plate of size 13 cm × 18 cm. After solidifying at 10° C, the plate is dried in a drying cabinet with circulating air at 32° C.
A strip cut to 4.0 cm × 6.5 cm is exposed to 500 Lux/cm^2 under a step wedge for 2 seconds and is subsequently treated at 24° C as follows: […]

On to `CCCCOP(=O)(CCCOc1ccc(C(=O)Nc2cccc(C(=O)NC3=NN(c4c(Cl)cc(Cl)cc4Cl)C(=O)C3)c2)c(OCCCP(=O)(OCCCC)OCCCC)c1)OCCCC` [(248)], for which the “Abs.max., first of two maxima (subsidiary maximum)” value (from here on “Abs.max., first of two maxima”) is 436 nm and the “Abs.max., second of two maxima (absorption maximum)” value (“Abs.max., second of two maxima” below) came out at 541 nm.

Turning to `CCCCC(CC)COP(=O)(CCCOc1ccc(C(=O)Nc2cccc(C(=O)NC3=NN(c4c(Cl)cc(Cl)cc4Cl)C(=O)C3)c2)c(OCCCP(=O)(OCC(CC)CCCC)OCC(CC)CCCC)c1)OCC(CC)CCCC` (stereo not drawn) [(251)], the “Abs.max., first of two maxima” value is 436 nm and the “Abs.max., second of two maxima” value came to 540 nm.

On to `CCCCOP(=O)(CCCOc1cc(OCCCP(=O)(OCCCC)OCCCC)cc(C(=O)NC2=NN(c3ccc(C#N)cc3)C(=O)C2)c1)OCCCC` [(253)], for which the “Abs.max., first of two maxima” value is 440 nm and the “Abs.max., second of two maxima” value is reported as 540 nm.

As to `CCCCOP(=O)(CCCOc1cc(OCCCP(=O)(OCCCC)OCCCC)cc(C(=O)NC2=NN(c3c(C)c(Cl)c(OC)c(Cl)c3Cl)C(=O)C2)c1)OCCCC` [(254)], the “Abs.max., first of two maxima” value amounted to 438 nm and the “Abs.max., second of two maxima” value was 540 nm.

In the case of `CCCCOP(=O)(CCCOc1cc(OCCCP(=O)(OCCCC)OCCCC)cc(C(=O)Nc2cccc(C(=O)NC3=NN(c4cccc(Cl)c4)C(=O)C3)c2)c1)OCCCC` [(255)], the “Abs.max., first of two maxima” value was determined as 438 nm and the “Abs.max., second of two maxima” value stood at 536 nm.

On to `CCCCC(CC)COP(=O)(CCCOc1cccc(C(=O)Nc2cccc(C(=O)NC3=NN(c4cccc(Cl)c4)C(=O)C3)c2)c1)OCC(CC)CCCC` (stereo not drawn) [(256)], for which the “Abs.max., first of two maxima” value is 438 nm and the “Abs.max., second of two maxima” value is given as 534 nm.

In the case of `CCCCOP(=O)(CCCOc1cc(OCCCP(=O)(OCCCC)OCCCC)cc(C(=O)NC2=NN(c3nc4ccccc4s3)C(=O)C2)c1)OCCCC` [(257)], the “Abs.max., first of two maxima” value is 430 nm and the “Abs.max., second of two maxima” value is recorded as 537 nm.

In the case of `CCCCOP(=O)(CCCOc1cc(OCCCP(=O)(OCCCC)OCCCC)cc(C(=O)Nc2cccc(C(=O)NC3=NN(c4nc5ccccc5s4)C(=O)C3)c2)c1)OCCCC` [(258)], the “Abs.max., first of two maxima” value worked out at 550 nm and the “Abs.max., second of two maxima” value amounted to 580 nm.

`CCCCC(CC)COP(=O)(CCCOc1cccc(C(=O)Nc2cccc(C(=O)NC3=NN(c4nc5ccccc5s4)C(=O)C3)c2)c1)OCC(CC)CCCC` (stereo not drawn) [(259)]: the “Abs.max., first of two maxima” value is 548 nm and the “Abs.max., second of two maxima” value is 583 nm.

Turning to `CCCCOP(=O)(CCCOc1cc(OCCCP(=O)(OCCCC)OCCCC)cc(C(=O)Nc2cccc(C(=O)NC3=NN(c4c(C)cc(OC)cc4Cl)C(=O)C3)c2)c1)OCCCC` [(260)], the “Abs.max., first of two maxima” value was found to be 440 nm and the “Abs.max., second of two maxima” value is on record as 535 nm.

Consider `CCCCOP(=O)(CCCOc1cc(OCCCP(=O)(OCCCC)OCCCC)cc(C(=O)Nc2cccc(C(=O)NC3=NN(c4c(C)cc(C)cc4Cl)C(=O)C3)c2)c1)OCCCC` [(261)], for which the “Abs.max., first of two maxima” value was found to be 440 nm and the “Abs.max., second of two maxima” value is on record as 535 nm.

On to `CCCCC(CC)COP(=O)(CCCOc1cccc(C(=O)Nc2cccc(C(=O)NC3=NN(c4c(C)cc(C)cc4Cl)C(=O)C3)c2)c1)OCC(CC)CCCC` (stereo not drawn) [(262)], for which the “Abs.max., first of two maxima” value is on record as 440 nm and the “Abs.max., second of two maxima” value was found to be 536 nm.

Regarding `CCCCC(CC)COP(=O)(CCCOc1cc(OCCCP(=O)(OCC(CC)CCCC)OCC(CC)CCCC)cc(C(=O)Nc2cccc(C(=O)NC3=NN(c4c(C)cc(C)cc4Cl)C(=O)C3)c2)c1)OCC(CC)CCCC` (stereo not drawn) [(263)], the “Abs.max., first of two maxima” value amounted to 440 nm and the “Abs.max., second of two maxima” value worked out at 534 nm.

For the compound `CCCCC(CC)COP(=O)(CCCOc1cccc(C(=O)Nc2cccc(C(=O)NC3=NN(c4c(C)cc(OC)cc4Cl)C(=O)C3)c2)c1)OCC(CC)CCCC` (stereo not drawn) [(264)], the “Abs.max., first of two maxima” value was 440 nm and the “Abs.max., second of two maxima” value turned out to be 536 nm.

Take `CCCCOP(=O)(CCCOc1cc(OCCCP(=O)(OCCCC)OCCCC)cc(C(=O)Nc2cccc(C(=O)NC3=NN(c4c(Cl)cc(Cl)cc4OC)C(=O)C3)c2)c1)OCCCC` [(265)]: the “Abs.max., first of two maxima” value is recorded as 436 nm and the “Abs.max., second of two maxima” value amounted to 537 nm.

Consider `CCCCOP(=O)(CCCOc1cc(OCCCP(=O)(OCCCC)OCCCC)cc(C(=O)Nc2cccc(C(=O)NC3=NN(c4c(Cl)cc(OC)cc4Cl)C(=O)C3)c2)c1)OCCCC` [(266)], for which the “Abs.max., first of two maxima” value turned out to be 436 nm and the “Abs.max., second of two maxima” value came to 540 nm.

Regarding `CCCCC(CC)COP(=O)(CCCOc1cccc(C(=O)Nc2cccc(C(=O)NC3=NN(c4c(Cl)cc(OC)cc4Cl)C(=O)C3)c2)c1)OCC(CC)CCCC` (stereo not drawn) [(267)], the “Abs.max., first of two maxima” value is on record as 436 nm and the “Abs.max., second of two maxima” value was determined as 536 nm.

With `CCCCC(CC)COP(=O)(CCCOc1cccc(C(=O)Nc2cccc(C(=O)NC3=NN(c4c(Cl)cc(Cl)cc4OC)C(=O)C3)c2)c1)OCC(CC)CCCC` (stereo not drawn) [(268)], the “Abs.max., first of two maxima” value amounted to 438 nm and the “Abs.max., second of two maxima” value was 540 nm.

Turning to `CCCCC(CC)COP(=O)(CCCOc1cccc(C(=O)Nc2cccc(C(=O)NC3=NN(c4c(C)cc(Cl)cc4Cl)C(=O)C3)c2)c1)OCC(CC)CCCC` (stereo not drawn) [(269)], the “Abs.max., first of two maxima” value is 438 nm and the “Abs.max., second of two maxima” value came to 540 nm.

Regarding `CCCCC(CC)COP(=O)(CCCOc1cccc(OCC(=O)Nc2cccc(C(=O)NC3=NN(c4c(Cl)cc(Cl)cc4Cl)C(=O)C3)c2)c1)OCC(CC)CCCC` (stereo not drawn) [(270)], the “Abs.max., first of two maxima” value was determined as 438 nm and the “Abs.max., second of two maxima” value is reported as 544 nm.

As for `CCCCC(CC)COP(=O)(CCCOc1cccc(OCC(=O)Nc2cccc(C(=O)NC3=NN(c4c(C)cc(C)cc4Cl)C(=O)C3)c2)c1)OCC(CC)CCCC` (stereo not drawn) [(271)], the “Abs.max., first of two maxima” value is 440 nm and the “Abs.max., second of two maxima” value stood at 532 nm.

As to `CCCCOP(=O)(CCCOc1cc(OCCCP(=O)(OCCCC)OCCCC)cc(C(=O)Nc2cccc(C(=O)NC3=NN(c4c(C)cc(Cl)cc4Cl)C(=O)C3)c2)c1)OCCCC` [(272)], the “Abs.max., first of two maxima” value was 438 nm and the “Abs.max., second of two maxima” value was found to be 540 nm.

For `CCCCOP(=O)(CCCOc1cc(OCCCP(=O)(OCCCC)OCCCC)cc(C(=O)Nc2cccc(NC(=O)NC3=NN(c4c(Cl)cc(Cl)cc4Cl)C(=O)C3)c2)c1)OCCCC` [(273)], the “Abs.max., first of two maxima” value is listed as 430 nm and the “Abs.max., second of two maxima” value stood at 547 nm.

Consider `CCCCC(CC)COP(=O)(CCCOc1cccc(C(=O)Nc2cccc(NC(=O)NC3=NN(c4c(Cl)cc(Cl)cc4Cl)C(=O)C3)c2)c1)OCC(CC)CCCC` (stereo not drawn) [(274)], for which the “Abs.max., first of two maxima” value is listed as 430 nm and the “Abs.max., second of two maxima” value was 546 nm.

As for `CCCCOP(=O)(CCCOc1cccc(C(=O)Nc2cccc(C(=O)NC3=NN(c4ccc(S(C)(=O)=O)cc4)C(=O)C3)c2)c1)OCCCC` [(275)], the “Abs.max., first of two maxima” value worked out at 440 nm and the “Abs.max., second of two maxima” value is reported as 538 nm.

`CCOP(=O)(CCCOc1cccc(NC2=NN(c3ccccc3)C(=O)C2)c1)OCC` [(401)]: the “Abs.max., first of two maxima” value turned out to be 429 nm and the “Abs.max., second of two maxima” value was found to be 524 nm.

Regarding `CCOP(=O)(CCCOc1cccc(NC2=NN(c3cccc(Cl)c3)C(=O)C2)c1)OCC` [(402)], the “Abs.max., first of two maxima” value is reported as 430 nm and the “Abs.max., second of two maxima” value was 534 nm.

On to `CCOP(=O)(CCCOc1cccc(NC2=NN(c3c(Cl)cc(Cl)cc3Cl)C(=O)C2)c1)OCC` [(403)], for which the “Abs.max., first of two maxima” value came to 424 nm and the “Abs.max., second of two maxima” value stood at 526 nm.

For the compound `CCOP(=O)(CCCOc1ccc(NC2=NN(c3c(Cl)cc(Cl)cc3Cl)C(=O)C2)cc1)OCC` [(404)], the “Abs.max., first of two maxima” value turned out to be 425 nm and the “Abs.max., second of two maxima” value amounted to 530 nm.

In the case of `CCOP(=O)(CCCOc1ccc(NC2=NN(c3ccccc3)C(=O)C2)cc1)OCC` [(405)], the “Abs.max., first of two maxima” value is 428 nm and the “Abs.max., second of two maxima” value is listed as 526 nm.

With `CCOP(=O)(CCCOc1ccc(NC2=NN(c3cccc(Cl)c3)C(=O)C2)cc1)OCC` [(406)], the “Abs.max., first of two maxima” value is given as 425 nm and the “Abs.max., second of two maxima” value is 530 nm.

Regarding `CCOP(=O)(CCCc1ccc(NC2=NN(c3ccccc3)C(=O)C2)cc1)OCC` [(407)], the “Abs.max., first of two maxima” value stood at 429 nm and the “Abs.max., second of two maxima” value is recorded as 527 nm.

Regarding `CCOP(=O)(CCCc1ccc(NC2=NN(c3c(Cl)cc(Cl)cc3Cl)C(=O)C2)cc1)OCC` [(408)], the “Abs.max., first of two maxima” value came out at 426 nm and the “Abs.max., second of two maxima” value is recorded as 530 nm.
